Test results: ChEMBL document CHEMBL5143752, “Biological Effects of Modifications of the Englerin A Glycolate” (ACS Med Chem Lett, 2022)
Active and inactive are the calls of the source. The rule behind the calls is not given here.

Experiments:
RXF 393 = experiment: Growth inhibition of human RXF 393 cells assessed as inhibition of cell growth; format: functional
UO-31 = experiment: Growth inhibition of human UO-31 cells assessed as cell growth inhibition; format: functional
A498 = experiment: Growth inhibition of human A498 cells assessed as cell growth inhibition; format: functional
[1] = Plasma concentration in mouse at 100 mg/kg, po by LC-MS/MS analysis; format: ADME, organism-based; settings: in vivo
[2] = Acute toxicity in mouse assessed as maximum tolerated dose measured for 24 hrs; settings: in vivo
[3] = molecular target: T1, Short transient receptor potential channel 5 (Homo sapiens) (UniProt Q9UL62); experiment: Agonist activity at human TRPC5 stably expressed in T-REx-293 cells assessed as increase in calcium flux at 10 uM by Fura-2AM dye based fluorescence plate reader assay; format: cell-based; settings: filed as agonist
T1 sequence (whole entry): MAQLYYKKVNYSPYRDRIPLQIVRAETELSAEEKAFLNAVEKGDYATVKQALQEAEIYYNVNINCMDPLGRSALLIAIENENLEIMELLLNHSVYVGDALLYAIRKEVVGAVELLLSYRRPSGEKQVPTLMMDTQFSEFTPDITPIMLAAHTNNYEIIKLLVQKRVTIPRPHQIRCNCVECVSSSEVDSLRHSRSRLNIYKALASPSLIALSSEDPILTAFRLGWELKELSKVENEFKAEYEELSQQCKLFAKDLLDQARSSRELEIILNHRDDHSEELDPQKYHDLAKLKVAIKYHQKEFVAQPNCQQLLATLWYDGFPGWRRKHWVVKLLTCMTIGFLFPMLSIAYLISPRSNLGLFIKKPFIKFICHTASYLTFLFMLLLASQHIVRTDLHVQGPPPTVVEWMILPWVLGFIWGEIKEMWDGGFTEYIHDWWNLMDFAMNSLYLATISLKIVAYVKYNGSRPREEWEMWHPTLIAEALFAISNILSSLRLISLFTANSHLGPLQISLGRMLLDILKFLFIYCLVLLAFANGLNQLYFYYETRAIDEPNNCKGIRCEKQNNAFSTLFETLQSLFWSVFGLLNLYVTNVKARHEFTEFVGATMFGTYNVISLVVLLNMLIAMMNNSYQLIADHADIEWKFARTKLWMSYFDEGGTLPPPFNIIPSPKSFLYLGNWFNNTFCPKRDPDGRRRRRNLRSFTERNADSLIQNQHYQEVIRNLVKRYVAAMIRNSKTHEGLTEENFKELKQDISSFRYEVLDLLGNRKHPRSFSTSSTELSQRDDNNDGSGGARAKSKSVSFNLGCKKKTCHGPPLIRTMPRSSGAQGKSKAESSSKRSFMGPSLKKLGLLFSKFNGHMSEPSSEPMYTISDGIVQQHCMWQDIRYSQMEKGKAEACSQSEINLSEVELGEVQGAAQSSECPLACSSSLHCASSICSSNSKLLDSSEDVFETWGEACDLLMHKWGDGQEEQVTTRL

[4] = molecular target: T2, Short transient receptor potential channel 4 (Homo sapiens) (UniProt Q9UBN4); experiment: Agonist activity at human TRPC4 stably expressed in T-REx-293 cells assessed as increase in calcium flux at 10 uM by Fura-2AM dye based fluorescence plate reader assay relative to control; format: cell-based
T2 sequence (whole entry): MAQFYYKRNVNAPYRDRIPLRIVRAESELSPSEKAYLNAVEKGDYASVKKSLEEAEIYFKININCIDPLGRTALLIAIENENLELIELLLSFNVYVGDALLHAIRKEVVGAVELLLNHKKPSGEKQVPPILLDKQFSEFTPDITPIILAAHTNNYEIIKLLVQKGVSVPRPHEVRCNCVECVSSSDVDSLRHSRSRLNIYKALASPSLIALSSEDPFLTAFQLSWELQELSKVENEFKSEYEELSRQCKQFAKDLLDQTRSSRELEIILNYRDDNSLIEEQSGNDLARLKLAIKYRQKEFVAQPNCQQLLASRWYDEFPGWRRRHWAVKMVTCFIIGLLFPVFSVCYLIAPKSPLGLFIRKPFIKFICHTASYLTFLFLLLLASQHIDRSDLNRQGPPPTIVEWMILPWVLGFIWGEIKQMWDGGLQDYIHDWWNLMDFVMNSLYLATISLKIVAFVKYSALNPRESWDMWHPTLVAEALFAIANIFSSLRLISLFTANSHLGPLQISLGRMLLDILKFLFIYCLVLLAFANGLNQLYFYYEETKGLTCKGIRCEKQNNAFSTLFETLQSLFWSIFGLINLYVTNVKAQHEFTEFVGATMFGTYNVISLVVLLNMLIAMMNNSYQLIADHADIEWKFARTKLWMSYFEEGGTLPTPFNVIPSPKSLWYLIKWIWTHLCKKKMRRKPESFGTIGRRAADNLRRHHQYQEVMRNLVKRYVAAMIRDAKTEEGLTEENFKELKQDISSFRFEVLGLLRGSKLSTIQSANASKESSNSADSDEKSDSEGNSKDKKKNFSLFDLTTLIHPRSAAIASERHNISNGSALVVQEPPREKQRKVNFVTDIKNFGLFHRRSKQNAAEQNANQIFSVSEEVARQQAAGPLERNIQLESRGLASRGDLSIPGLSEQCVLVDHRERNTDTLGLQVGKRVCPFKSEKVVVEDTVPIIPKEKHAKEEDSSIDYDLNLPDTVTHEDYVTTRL

[5] = molecular target: T3, Short transient receptor potential channel 5 (Homo sapiens, UniProt Q9UL62); experiment: Agonist activity at human TRPC5 stably expressed in T-REx-293 cells assessed as increase in calcium flux by Fura-2AM dye based fluorescence plate reader assay; format: cell-based
T3 sequence (Q9UL62 whole entry): T1 sequence (whole entry)

[6] = molecular target: T2, Short transient receptor potential channel 4 (Homo sapiens); experiment: Agonist activity at human TRPC4 stably expressed in T-REx-293 cells assessed as increase in calcium flux at 10 uM by Fura-2AM dye based fluorescence plate reader assay; format: cell-based; settings: filed as agonist

CC(C)[C@@]12C[C@@H](OC(=O)COC(=O)/C=C/c3ccccc3)[C@@](C)(O1)[C@@H]1CC[C@@H](C)[C@H]1[C@@H]2OC(=O)/C=C/c1ccccc1
GI50 (RXF 393): 138 nM
GI50 (UO-31): 66 nM
GI50 (A498): 44 nM
Cp [1]: 38.7 ng/mL
MTD at 24 h [2]: 1 mg/kg

CCCCCC(=O)OCC(=O)O[C@@H]1C[C@]2(C(C)C)O[C@@]1(C)[C@@H]1CC[C@@H](C)[C@H]1[C@@H]2OC(=O)/C=C/c1ccccc1
GI50 (RXF 393): 126 nM
GI50 (UO-31): 41 nM
Activity [3]: Active
GI50 (A498): 52 nM
MTD at 24 h [2]: 0.4 mg/kg

CC(C)[C@@]12C[C@@H](OC(=O)COS(C)(=O)=O)[C@@](C)(O1)[C@@H]1CC[C@@H](C)[C@H]1[C@@H]2OC(=O)/C=C/c1ccccc1
GI50 (RXF 393): 1100 nM
GI50 (UO-31): 1400 nM
GI50 (A498): 1300 nM

CC(C)[C@@]12C[C@@H](OC(=O)[C@H]3CO3)[C@@](C)(O1)[C@@H]1CC[C@@H](C)[C@H]1[C@@H]2OC(=O)/C=C/c1ccccc1
GI50 (RXF 393): 170 nM
GI50 (UO-31): 204 nM
GI50 (A498): 224 nM

CC(C)=CC(=O)OCC(=O)O[C@@H]1C[C@]2(C(C)C)O[C@@]1(C)[C@@H]1CC[C@@H](C)[C@H]1[C@@H]2OC(=O)/C=C/c1ccccc1
GI50 (RXF 393): 380 nM
GI50 (UO-31): 240 nM
Activity [4]: 15%
GI50 (A498): 178 nM
Cp [1]: 1.5 ng/mL
EC50 [5]: 1250 nM
MTD at 24 h [2]: 0.4 mg/kg

CC(=O)OCC(=O)O[C@@H]1C[C@]2(C(C)C)O[C@@]1(C)[C@@H]1CC[C@@H](C)[C@H]1[C@@H]2OC(=O)/C=C/c1ccccc1
GI50 (RXF 393): 209 nM
GI50 (UO-31): 34 nM
Activity [6]: Active
GI50 (A498): 40 nM
EC50 [5]: 480 nM
MTD at 24 h [2]: 0.2 mg/kg

CC(C)[C@@]12C[C@@H](OC(=O)[C@@H]3CO3)[C@@](C)(O1)[C@@H]1CC[C@@H](C)[C@H]1[C@@H]2OC(=O)/C=C/c1ccccc1
GI50 (RXF 393): 7900 nM
GI50 (UO-31): 1780 nM
GI50 (A498): 2040 nM

CC(C)[C@@]12C[C@@H](OC(=O)/C=C/c3ccccc3)[C@@](C)(O1)[C@@H]1CC[C@@H](C)[C@H]1[C@@H]2OC(=O)/C=C/c1ccccc1
GI50 (RXF 393): > 100000 nM
GI50 (UO-31): > 100000 nM
GI50 (A498): > 100000 nM

CC(C)[C@@]12C[C@@H](OS(C)(=O)=O)[C@@](C)(O1)[C@@H]1CC[C@@H](C)[C@H]1[C@@H]2OC(=O)/C=C/c1ccccc1
GI50 (RXF 393): 427 nM
GI50 (UO-31): 389 nM
GI50 (A498): 145 nM

CC(C)[C@@]12C[C@@H](OC(=O)COC(=O)c3ccccc3)[C@@](C)(O1)[C@@H]1CC[C@@H](C)[C@H]1[C@@H]2OC(=O)/C=C/c1ccccc1
GI50 (RXF 393): 282 nM
GI50 (UO-31): 115 nM
GI50 (A498): 155 nM
MTD at 24 h [2]: 0.4 mg/kg
